# Results as given in patent US6972296B2, “Carboxylic acid derivatives that inhibit the binding of integrins to their receptors” (Encysive Pharmaceuticals Inc., priority 1999, dated 2005).
# Target: T1, α4β1 integrin (Homo sapiens, UniProt P05556+P13612)
# T1 construct: endogenous in cells; host or cells: Ramos cells
# Assay: Adhesion of calcein-labeled Ramos cells to CS1 (fibronectin) peptide conjugated ovalbumin
# Format: cell-based
# Conditions: Table 3; Ramos cell adhesion to CS1 conjugated ovalbumin, 30 minutes at 37° C.
# Experimental: A procedure in which a 26-amino acid peptide containing the CS1 sequence of fibronectin with an N-terminal Cys ([…]) was coupled to maleimide activated ovalbumin was used to determine the efficacy of the compounds synthesized. Bovine serum albumin (BSA) and CS1 conjugated ovalbumin were coated onto 96-well polystyrene plates at 0.5 μg/ml in TBS (50 mM TRIS, pH 7.5; 150 mM NaCl) at 4° C. for 16 hours. The plates were washed three times with TBS and blocked with TBS containing 3% BSA at room temperature for 4 hours. Blocked plates were washed three times in binding buffer (TBS; 1 mM MgCl2; 1 mM CaCl2; 1 mM MnCl2) prior to assay. Ramos cells fluorescently labeled with calcein AM were resuspended in binding buffer (10^7 cells/ml) and diluted 1:2 with same buffer with or without compound. 100 μM of compound was added. The cells were added immediately to the wells (2.5×10^5 cells/well) and incubated for 30 minutes at 37° C. Following three washes with binding buffer, adherent cells were lysed and quantitated using a fluorometer. IC50 is defined as the dose required to give 50% inhibition, measured in μM for Tables 2 and 4. The lower the IC50 value and the greater the percentage of inhibition, the more efficient the compound is at prevention of cell adhesion.
# T1 sequence (P13612 34-1032): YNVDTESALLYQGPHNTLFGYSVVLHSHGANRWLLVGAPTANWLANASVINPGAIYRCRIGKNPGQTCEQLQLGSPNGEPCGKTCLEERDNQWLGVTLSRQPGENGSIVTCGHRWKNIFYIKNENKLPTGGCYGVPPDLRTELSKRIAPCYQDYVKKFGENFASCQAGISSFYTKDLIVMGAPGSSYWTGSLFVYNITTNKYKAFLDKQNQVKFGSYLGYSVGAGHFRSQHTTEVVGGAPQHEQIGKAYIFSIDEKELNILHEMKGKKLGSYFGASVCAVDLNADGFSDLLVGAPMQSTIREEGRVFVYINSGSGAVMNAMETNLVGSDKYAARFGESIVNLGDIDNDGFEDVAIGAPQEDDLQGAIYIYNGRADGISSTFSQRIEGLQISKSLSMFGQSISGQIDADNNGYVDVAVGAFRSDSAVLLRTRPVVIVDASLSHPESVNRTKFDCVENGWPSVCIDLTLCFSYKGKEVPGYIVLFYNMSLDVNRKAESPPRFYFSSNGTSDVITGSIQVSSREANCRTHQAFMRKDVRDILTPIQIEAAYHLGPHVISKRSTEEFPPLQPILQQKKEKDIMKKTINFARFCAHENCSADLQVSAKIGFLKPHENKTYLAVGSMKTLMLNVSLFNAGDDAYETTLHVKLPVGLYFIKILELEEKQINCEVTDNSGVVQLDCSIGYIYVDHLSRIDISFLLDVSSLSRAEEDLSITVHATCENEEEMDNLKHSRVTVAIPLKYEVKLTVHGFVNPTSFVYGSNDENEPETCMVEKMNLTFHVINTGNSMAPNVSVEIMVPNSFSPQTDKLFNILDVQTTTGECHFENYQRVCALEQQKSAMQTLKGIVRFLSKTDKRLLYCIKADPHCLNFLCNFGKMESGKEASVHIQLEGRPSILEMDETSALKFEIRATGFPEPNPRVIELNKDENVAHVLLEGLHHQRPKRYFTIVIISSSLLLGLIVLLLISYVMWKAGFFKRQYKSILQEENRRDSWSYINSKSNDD
# T1 sequence (P05556 21-798): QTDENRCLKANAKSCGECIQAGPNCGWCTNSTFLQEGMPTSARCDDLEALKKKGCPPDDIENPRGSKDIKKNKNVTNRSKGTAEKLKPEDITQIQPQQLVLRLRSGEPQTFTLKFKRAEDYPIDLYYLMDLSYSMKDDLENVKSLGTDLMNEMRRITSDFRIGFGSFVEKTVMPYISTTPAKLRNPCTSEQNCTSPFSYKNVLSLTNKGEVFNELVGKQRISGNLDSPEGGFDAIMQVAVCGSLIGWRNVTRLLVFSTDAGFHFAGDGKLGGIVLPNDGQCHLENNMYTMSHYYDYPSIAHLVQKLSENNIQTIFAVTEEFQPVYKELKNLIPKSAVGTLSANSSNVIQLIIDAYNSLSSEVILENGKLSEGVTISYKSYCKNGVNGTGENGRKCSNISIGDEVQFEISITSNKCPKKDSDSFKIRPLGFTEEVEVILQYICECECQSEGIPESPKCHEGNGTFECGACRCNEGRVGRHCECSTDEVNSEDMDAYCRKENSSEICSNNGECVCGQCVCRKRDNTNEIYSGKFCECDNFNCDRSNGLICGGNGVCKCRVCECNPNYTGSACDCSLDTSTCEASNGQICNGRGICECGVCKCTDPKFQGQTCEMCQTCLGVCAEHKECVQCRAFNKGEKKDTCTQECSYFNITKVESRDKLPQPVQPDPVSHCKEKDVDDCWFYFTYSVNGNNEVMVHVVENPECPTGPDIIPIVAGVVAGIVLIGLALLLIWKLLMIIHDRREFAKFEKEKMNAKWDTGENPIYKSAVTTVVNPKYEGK
row,Structure (SMILES),IC50
1,COc1cc([C@H](CC(=O)O)NC(=O)Nc2c(O)ccn(Cc3ccccc3Cl)c2=O)cc(OC)c1OC,0.02 µM
2,"Cc1cccc([C@H](CC(=O)O)NC(=O)Nc2c(O)ccn(Cc3ccccc3Cl)c2=O)c1 [(3S)-3-{[({1-[(2-chlorophenyl)methyl]-4-hydroxy-2-oxo-1,2-dihydro-3-pyridinyl}amino)carbonyl]amino}-3-(3-methylphenyl)propanoic acid]",0.02 µM
3,"Cc1ccc([C@H](CC(=O)O)NC(=O)Nc2c(CC(C)C)nc(C)n(Cc3ccccc3)c2=O)cc1 [(3S)-3-[({[2-methyl-4-(2-methylpropyl)-6-oxo-1-(phenylmethyl)-1,6-dihydro-5-pyrimidinyl]amino}carbonyl)amino]-3-(4-methylphenyl)propanoic acid]",0.01 µM
4,Cc1ccc([C@H](CC(=O)O)NC(=O)Nc2c(C)nc(C)n(Cc3ccccc3Cl)c2=O)cc1,0.01 µM
5,"Cc1ccc([C@H](CC(=O)O)NC(=O)Nc2c(C)ccn(Cc3ccccc3Br)c2=O)cc1 [(3S)-3-{[({1-[(2-bromophenyl)methyl]-4-methyl-2-oxo-1,2-dihydro-3-pyridinyl}amino)carbonyl]amino}-3-(4-methylphenyl)propanoic acid]",0.01 µM

# Same assay, conditions: Table 4; Ramos cell adhesion to CS1 conjugated ovalbumin, 30 minutes at 37° C.
row,Structure (SMILES),IC50
1,COc1cc([C@H](CC(=O)O)NC(=O)Nc2cccn(Cc3ccccc3Cl)c2=O)cc(OC)c1OC,0.04 µM
2,O=C(O)C[C@H](NC(=O)Nc1ccc(=O)n(Cc2ccccc2)c1)c1ccc2c(c1)OCO2,0.5 µM
3,O=C(O)C[C@H](NC(=O)Nc1cccc(NCc2cccs2)c1)c1ccc2c(c1)OCO2,5 µM
4,Cc1ccc([C@H](CC(=O)O)NC(=O)Nc2cccn(Cc3ccccc3-c3ccccc3)c2=O)cc1,2.5 µM
5,O=C(O)C[C@H](NC(=O)Nc1cccn(Cc2cccs2)c1=O)c1ccc(C(F)(F)F)cc1,1.5 µM
6,Cc1ccc([C@H](CC(=O)O)NC(=O)Nc2cccn(Cc3ccc(C(F)(F)F)cc3F)c2=O)cc1,3 µM
7,"Cc1ccc([C@H](CC(=O)O)NC(=O)Nc2cnc(C)n(Cc3ccccc3)c2=O)cc1 [(3S)-3-[({[2-methyl-6-oxo-1-(phenylmethyl)-1,6-dihydro-5-pyrimidinyl]amino}carbonyl)amino]-3-(4-methylphenyl)propanoic acid]",0.1 µM

# Results, then the compound that gave them:
row,IC50,Structure (SMILES)
1,8 µM,Cc1ccc([C@H](CC(=O)O)NC(=O)Nc2cc(Cl)cc(Cc3ccccc3)c2O)cc1 [(3S)-3-[({[5-chloro-2-hydroxy-3-(phenylmethyl)phenyl]amino}carbonyl)amino]-3-(4-methylphenyl)propanoic acid]
2,0.2 µM,Cc1ccc([C@H](CC(=O)O)NC(=O)Nc2cccn(Cc3cccc(O)c3)c2=O)cc1
3,0.1 µM,CC(C)C[C@H](CC(=O)O)NC(=O)Nc1c(N2CCOCC2)ccn(Cc2ccccc2Cl)c1=O
4,0.5 µM,Cc1ccc([C@H](CC(=O)O)NC(=O)Nc2cccn(Cc3cc(F)ccc3Br)c2=O)cc1

# Same assay, conditions: Table 5; Ramos cell adhesion to CS1 conjugated ovalbumin; dose required to give 50% inhibition
row,Structure (SMILES),IC50
1,Cc1ccc([C@H](CC(=O)O)NC(=O)Nc2c(O)ccn(Cc3c(Cl)cccc3Cl)c2=O)cc1,0.013 µM
2,O=C(O)C[C@@H](Cc1ccccn1)NC(=O)Nc1c(O)ccn(Cc2ccccc2Cl)c1=O,0.225 µM
3,"CCOc1cccc([C@H](CC(=O)O)NC(=O)Nc2c(O)c(C)cn(Cc3ccccc3Cl)c2=O)c1 [(3S)-3-[({[1-(2-chlorobenzyl)-4-hydroxy-5-methyl-2-oxo-1,2-dihydropyridin-3-yl]amino}carbonyl)amino]-3-(3-ethoxyphenyl)propanoic acid]",0.002 µM
4,CCCCOc1ccc([C@H](CC(=O)O)NC(=O)Nc2c(O)ccn(Cc3ccccc3Cl)c2=O)cc1OCCCC,0.025 µM
5,Cc1ccc([C@H](CC(=O)O)NC(=O)Nc2cccn(Cc3cccc(Cl)c3)c2=O)cc1,0.5 µM
6,Cc1ccc([C@H](CC(=O)O)NC(=O)Nc2c(O)ccn(Cc3ccc(OC(F)(F)F)cc3)c2=O)cc1,0.025 µM
7,Cc1ccc([C@H](CC(=O)O)NC(=O)Nc2cccn(Cc3ccc(F)cc3)c2=O)cc1,2 µM
8,Cc1ccc([C@H](CC(=O)O)NC(=O)Nc2c(O)ccn(Cc3cc(C)cc(C)c3)c2=O)cc1,0.06 µM

# Second part, the compound after the results:
row,IC50,Structure (SMILES)
1,0.0015 µM,"COc1cc(OC)cc([C@H](CC(=O)O)NC(=O)Nc2c(O)ccn(Cc3c(Cl)cccc3OC)c2=O)c1 [(3S)-3-[({[1-(2-chloro-6-methoxybenzyl)-4-hydroxy-2-oxo-1,2-dihydropyridin-3-yl]amino}carbonyl)amino]-3-(3,5-dimethoxyphenyl)propanoic acid]"
2,0.015 µM,Cc1ccc([C@H](CC(=O)O)NC(=O)Nc2c(O)ccn(Cc3ccccc3Br)c2=O)cc1
3,0.005 µM,"Cc1ccc([C@H](CC(=O)O)NC(=O)Nc2c(O)ccn(Cc3ccccc3Cl)c2=O)cc1C [(3S)-3-[({[1-(2-chlorobenzyl)-4-hydroxy-2-oxo-1,2-dihydropyridin-3-yl]amino}carbonyl)amino]-3-(3,4-dimethylphenyl)propanoic acid]"

# Same assay, conditions: Table 6; Ramos cell adhesion to CS1 conjugated ovalbumin, 30 minutes at 37° C.
row,Structure (SMILES),IC50
1,Cc1cn(Cc2ccccc2Cl)c(=O)c(NC(=O)N[C@@H](CC(=O)O)c2cccc(OC3CCCC3)c2)c1O,0.015 µM
2,"CCOc1cccc([C@H](CC(=O)O)NC(=O)Nc2c(O)c(C)cn(Cc3c(Cl)cccc3OCC)c2=O)c1 [(3S)-3-[({[1-(2-chloro-6-ethoxybenzyl)-4-hydroxy-5-methyl-2-oxo-1,2-dihydropyridin-3-yl]amino}carbonyl)amino]-3-(3-ethoxyphenyl)propanoic acid]",0.002 µM
3,COc1cccc(Cl)c1Cn1cc(C)c(O)c(NC(=O)N[C@@H](CC(=O)O)c2ccc(C)cc2)c1=O,0.005 µM
4,CCOc1cccc([C@H](CC(=O)O)NC(=O)Nc2c(O)c(CC)cn(Cc3c(Cl)cccc3OCC)c2=O)c1,0.004 µM
5,Cc1ccc([C@H](CC(=O)O)NC(=O)Nc2c(O)c(C)cn(Cc3c(F)cccc3C(F)(F)F)c2=O)cc1,0.1 µM
6,Cc1ccc([C@H](CC(=O)O)NC(=O)Nc2c(O)c(C)cn(Cc3cc(F)ccc3C)c2=O)cc1,0.02 µM
7,CCOc1cccc([C@H](CC(=O)O)NC(=O)Nc2c(O)c3c(n(Cc4ccccc4Cl)c2=O)CCC3)c1,0.003 µM

# Same assay, conditions: Table 7; Ramos cell adhesion to CS1 conjugated ovalbumin; dose required to give 50% inhibition
row,Structure (SMILES),IC50
1,CCOc1cc([C@H](CC(=O)O)NC(=O)Nc2c(O)c(C)cn(Cc3ccccc3Cl)c2=O)ccc1-c1ccccc1,0.025 µM
2,Cc1ccc(-c2cccc([C@H](CC(=O)O)NC(=O)Nc3c(O)c(C)cn(Cc4ccccc4Cl)c3=O)c2)cc1,0.023 µM
3,Cc1cn(Cc2ccccc2Cl)c(=O)c(NC(=O)NC(CC(=O)O)c2ccco2)c1O (stereo not shown),0.004 µM
4,O=C(O)CC(NC(=O)Nc1c(O)c2c(n(Cc3ccccc3Cl)c1=O)CCC2)c1ccc(-c2ccccc2)cc1 (stereo not shown),0.03 µM
5,CCOc1cccc([C@H](CC(=O)O)NC(=O)Nc2c(O)c3c(n(Cc4c(OCC)ccc(Cl)c4Cl)c2=O)CCC3)c1,0.003 µM
6,"CCN(c1cccc([C@H](CC(=O)O)NC(=O)Nc2c(O)c3c(n(Cc4c(C)cccc4Cl)c2=O)CCC3)c1)S(C)(=O)=O [(3S)-3-{[({1-[(2-chloro-6-methylphenyl)methyl]-4-hydroxy-2-oxo-2,5,6,7-tetrahydro-1H-cyclopenta[b]pyridin-3-yl}amino)carbonyl]amino}-3-{3-[ethyl(methylsulfonyl)amino]phenyl}propanoic acid]",0.001 µM
7,CCCc1cn(Cc2c(Cl)cccc2OCC)c(=O)c(NC(=O)N[C@@H](CC(=O)O)c2cccc(OCC)c2)c1O,0.006 µM
8,"CCOc1cccc(Cl)c1Cn1cc(C2CC2)c(O)c(NC(=O)N[C@@H](CC(=O)O)c2ccc(C)cc2)c1=O [(3S)-3-[({[1-(2-chloro-6-ethoxybenzyl)-5-cyclopropyl-4-hydroxy-2-oxo-1,2-dihydropyridin-3-yl]amino}carbonyl)amino]-3-(4-methylphenyl)propanoic acid]",0.003 µM

# The next lines start with the values.
row,IC50,Structure (SMILES)
1,0.09 µM,"Cc1ccc([C@H](CC(=O)O)NC(=O)Nc2c(O)c(C)cn(Cc3c(Cl)cccc3N3CCCCC3)c2=O)cc1 [(3S)-3-({[(1-{[2-chloro-6-tetrahydro-1(2H)-pyridinylphenyl]methyl}-4-hydroxy-5-methyl-2-oxo-1,2-dihydro-3-pyridinyl)amino]carbonyl}amino)-3-(4-methylphenyl)propanoic acid]"
2,0.004 µM,"CCOc1cccc(Cl)c1Cn1cc(C)c(O)c(NC(=O)N[C@@H](CC(=O)O)c2cccc(OC(F)(F)F)c2)c1=O [(3S)-3-[({[1-(2-chloro-6-ethoxybenzyl)-4-hydroxy-5-methyl-2-oxo-1,2-dihydropyridin-3-yl]amino}carbonyl)amino]-3-[3-(trifluoromethoxy)phenyl]propanoic acid]"
3,0.004 µM,CCOc1cccc([C@H](CC(=O)O)NC(=O)Nc2c(O)c(C)cn(Cc3c(Cl)cccc3OCC(F)(F)F)c2=O)c1
4,0.008 µM,CCOc1cccc(Cl)c1Cn1cc(C)c(O)c(NC(=O)NC(CC(=O)O)c2ccco2)c1=O (stereo not shown)
5,0.004 µM,"CCOc1cccc(Cl)c1Cn1c2c(c(O)c(NC(=O)N[C@@H](CC(=O)O)c3cccc(OCC4CC4)c3)c1=O)CCC2 [(3S)-3-[({[1-(2-chloro-6-ethoxybenzyl)-4-hydroxy-2-oxo-2,5,6,7-tetrahydro-1H-cyclopenta[b]pyridin-3-yl]amino}carbonyl)amino]-3-[3-(cyclopropylmethoxy)phenyl]propanoic acid]"
6,0.03 µM,Cc1cn(Cc2ccccc2Cl)c(=O)c(NC(=O)N[C@@H](CC(=O)O)c2cccc3ccn(C)c23)c1O
7,0.015 µM,CCOc1ccc2cc([C@H](CC(=O)O)NC(=O)Nc3c(O)c4c(n(Cc5ccccc5Cl)c3=O)CCC4)ccc2c1
